Results as given in patent US9815851B2, “Pyrrolo carboxamides as modulators of orphan nuclear receptor RAR-related orphan receptor-gamma (RORγ, NR1F3) activity and for the treatment of chronic inflammatory and autoimmune diseases” (PHENEX PHARMACEUTICALS AG, priority 2011, dated 2017).
Read-outs that look alike come from different tables or passages of the source.

Key:
[1] = target: T1, RORγ ligand binding domain (LBD) (Homo sapiens, UniProt P51449); test: TR-FRET Activity Assay (ligand sensing, RORγ-LBD / coactivator peptide interaction, LANCE); assay type: biochemical
T1 construct: made in house; host or cells: E. coli BL-21 (BL3), vector pDEST15
T1 sequence (P51449 269-508 limits assumed): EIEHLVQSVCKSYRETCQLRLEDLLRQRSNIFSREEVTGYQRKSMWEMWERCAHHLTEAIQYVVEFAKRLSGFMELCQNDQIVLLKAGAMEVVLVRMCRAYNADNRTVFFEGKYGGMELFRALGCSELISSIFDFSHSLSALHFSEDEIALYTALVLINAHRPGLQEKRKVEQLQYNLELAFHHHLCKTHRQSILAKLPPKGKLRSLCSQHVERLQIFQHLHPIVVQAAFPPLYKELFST

RORγ = target: T2, RORγ (UniProt P51449); test: RORγ Gal4 Reporter Gene Assay in 293T cells (firefly and renilla luciferase); assay type: cell-based, human
T2 sequence (P51449 1-518): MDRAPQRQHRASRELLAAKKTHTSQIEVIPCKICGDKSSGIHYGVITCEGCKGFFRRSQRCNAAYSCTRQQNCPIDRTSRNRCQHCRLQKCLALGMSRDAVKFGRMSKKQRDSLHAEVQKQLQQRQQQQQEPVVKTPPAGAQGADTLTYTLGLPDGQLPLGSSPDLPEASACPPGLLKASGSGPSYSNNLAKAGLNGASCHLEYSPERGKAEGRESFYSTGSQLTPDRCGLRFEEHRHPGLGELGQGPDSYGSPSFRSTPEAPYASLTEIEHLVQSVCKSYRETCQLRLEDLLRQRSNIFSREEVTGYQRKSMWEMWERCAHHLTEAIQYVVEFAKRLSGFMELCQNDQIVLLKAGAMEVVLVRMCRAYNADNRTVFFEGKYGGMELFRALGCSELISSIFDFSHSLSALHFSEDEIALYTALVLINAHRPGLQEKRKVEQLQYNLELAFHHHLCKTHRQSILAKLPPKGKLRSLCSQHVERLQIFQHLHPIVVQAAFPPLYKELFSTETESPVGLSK

[2] = first value of the cell FRET/FF/REN, TR-FRET activity assay, read-out: pIC50 (FRET) (converted)
[3] = second value of the cell, Gal4 reporter gene assay in 293T cells, firefly luciferase
[4] = third value of the cell, Gal4 reporter gene assay in 293T cells, renilla normalised luciferase

IC50 [1, 2] | pIC50 (FF) (RORγ; [3]) | pIC50 (REN) (RORγ; [4]) | Structure (SMILES) | IC50 [1] | pIC50 (FF) (RORγ) | pIC50 (REN) (RORγ)
316 nM | 7.9 | 8.0 | Cc1c(C(=O)NC2CCS(=O)(=O)CC2)cc(-c2ccc(S(=O)(=O)NC(C)(C)C)c3ccccc23)n1CC1CCCCC1 [17/263] |  |  | 
631 nM | 7.9 | 7.7 | Cc1c(C(=O)NCC(C)(C)O)cc(-c2ccc(S(=O)(=O)NC(C)(C)C)c3ccccc23)n1CC1CCCCC1 [17/264] |  |  | 
316 nM | 7.9 | 8.0 | Cc1c(C(=O)NCC2CCS(=O)(=O)CC2)cc(-c2ccc(S(=O)(=O)NC(C)(C)C)c3ccccc23)n1CC1CCCCC1 [17/265] |  |  | 
251 nM | 8.3 | 8.5 | Cc1c(C(=O)N2CC3(CCOCC3)C2)cc(-c2ccc(S(=O)(=O)NC(C)(C)C)c3ccccc23)n1CC1CCCCC1 [17/266] |  |  | 
794 nM | 7.9 | 8.0 | Cc1c(C(=O)NCC2(C(N)=O)CCOCC2)cc(-c2ccc(S(=O)(=O)NC(C)(C)C)c3ccccc23)n1CC1CCCCC1 [17/267] |  |  | 
794 nM | 7.7 | 7.8 | Cc1c(C(=O)NCC2(O)CCS(=O)(=O)CC2)cc(-c2ccc(S(=O)(=O)NC(C)(C)C)c3ccccc23)n1CC1CCCCC1 [17/268] |  |  | 
631 nM | 7.8 | 8.0 | Cc1c(C(=O)N2CC3(CCS(=O)(=O)CC3)C2)cc(-c2ccc(S(=O)(=O)NC(C)(C)C)c3ccccc23)n1CC1CCCCC1 [17/270] |  |  | 
794 nM | 7.1 | 7.1 | Cc1c(C(=O)N[C@H]2C[C@H](C(=O)O)C2)cc(-c2ccc(S(=O)(=O)NCC(F)(F)F)c3ccccc23)n1CC1CCCCC1 [17/271] |  |  | 
501 nM | 6.8 | 6.9 | Cc1c(-c2cc(C(=O)N[C@H]3C[C@H](C(=O)O)C3)c(C)n2CC2CCCCC2)ccc(S(=O)(=O)NC(C)(C)C)c1C [17/272] |  |  | 
251 nM | 7.9 | 7.9 | Cc1c(S(=O)(=O)NC(C)(C)C)ccc(-c2cc(C(=O)NC3CCOCC3)c(C)n2CC2CCCCC2)c1Cl [17/274] |  |  | 
631 nM | 7.0 | 7.0 | Cc1c(S(=O)(=O)NC(C)(C)C)ccc(-c2cc(C(=O)N[C@H]3C[C@H](C(=O)O)C3)c(C)n2CC2CCCCC2)c1Cl [17/275] |  |  | 
398 nM | 7.2 | 7.2 | Cc1c(C(=O)N[C@H]2C[C@H](C(=O)O)C2)cc(-c2ccc(S(=O)(=O)NC(C)(C)C)c(Cl)c2Cl)n1CC1CCCCC1 [17/277] |  |  | 
2510 nM | 7.0 | 7.0 | Cc1c(C(=O)NCC(C)(C)O)cc(-c2ccc(S(=O)(=O)NC(C)(C)C)c3ccccc23)n1CC1CCC(F)(F)CC1 [17/278] |  |  | 
3160 nM | < 4.7 | < 4.7 | Cc1c(C(=O)N[C@H]2C[C@H](C(=O)O)C2)cc(-c2ccc(S(=O)(=O)NC(C)(C)C)c3c2OCCO3)n1CC1CCCCC1 [17/279] |  |  | 
1000 nM | 8.1 | 8.1 | Cc1c(C(=O)NC2CCOCC2)cc(-c2ccc(S(=O)(=O)NC(C)(C)C)c3c2CCCC3)n1CC1CCCCC1 [17/280] |  |  | 
1000 nM | 7.7 | 7.7 | Cc1c(C(=O)N[C@H]2C[C@H](C(=O)O)C2)cc(-c2ccc(S(=O)(=O)NC(C)(C)C)c3c2CCCC3)n1CC1CCCCC1 [17/281] |  |  | 
1260 nM | 7.3 | 7.3 | Cc1c(S(=O)(=O)NC(C)(C)C)ccc(-c2cc(C(=O)NCCC(C)(C)C(=O)O)c(C)n2CC2CCCCC2)c1OC(F)F [17/284] |  |  | 
631 nM | 7.3 | 7.4 | Cc1c(S(=O)(=O)NC(C)(C)C)ccc(-c2cc(C(=O)NC3CCOCC3)c(C)n2CC2CCCCC2)c1OC(F)F [17/285] |  |  | 
1260 nM | 7.4 | 7.5 | Cc1c(S(=O)(=O)NC(C)(C)C)ccc(-c2cc(C(=O)NCCC(C)(C)C(=O)O)c(C)n2CC2CCCCC2)c1C(F)(F)F [17/286] |  |  | 
398 nM | 7.3 | 7.3 | Cc1c(C(=O)NC2CCOCC2)cc(-c2ccc(S(=O)(=O)NC(C)(C)C)c(C(F)(F)F)c2Cl)n1CC1CCCCC1 [17/288] |  |  | 
1260 nM | 7.1 | 7.2 | Cc1c(C(=O)NCCC(C)(C)C(=O)O)cc(-c2ccc(S(=O)(=O)NC(C)(C)C)c(C(F)(F)F)c2Cl)n1CC1CCCCC1 [17/289] |  |  | 

Continued, molecule first:

Structure (SMILES) | IC50 [1, 2] | pIC50 (FF) (RORγ; [3]) | pIC50 (REN) (RORγ; [4]) | IC50 [1] | pIC50 (FF) (RORγ) | pIC50 (REN) (RORγ)
Cc1c(C(=O)NC2CCOCC2)cc(-c2cc(F)c(NS(=O)(=O)C(C)(C)C)c(C(F)(F)F)c2)n1CC1CCCCC1 [17/248] | 2510 nM | 6.4 | 7.3 |  |  | 
Cc1c(C(=O)NC2CCOCC2)cc(-c2ccc(-c3ccnn3C(C)C)c(C(F)(F)F)c2)n1CC1CCCCC1 [17/249] | 501 nM | 6.6 | 6.7 |  |  | 
Cc1c(C(=O)NCCC(C)(C)C(=O)O)cc(-c2ccc(-c3ccnn3C(C)C)c(C(F)(F)F)c2)n1CC1CCCCC1 [17/250] | 1580 nM | 6.6 | 6.5 |  |  | 
Cc1c(C(=O)NC2CCOCC2)cc(-c2ccc(-c3nnc(C(C)(C)C)o3)c(C(C)(C)C)c2)n1CC1CCCCC1 [17/251] |  |  |  | 501 nM | 6.3/6.9/6.9 | 6.3/6.9/6.9
Cc1c(C(=O)N[C@H]2C[C@H](C(=O)O)C2)cc(-c2ccc(-c3nnc(C(C)(C)C)o3)c(C(C)(C)C)c2)n1CC1CCCCC1 [17/252] | 1580 nM | 6.5 | 6.6 |  |  | 
Cc1c(C(=O)NC2CCOCC2)cc(-c2ccc(S(=O)(=O)NC(C)(C)C)c(C(F)(F)F)c2)n1[C@@H](C)C1CCCCC1 [17/253] | 631 nM | 7.0 | 7.2 |  |  | 
Cc1c(C(=O)NC2CCOCC2)cc(-c2ccc(S(=O)(=O)NC(C)(C)C)c(C(F)(F)F)c2)n1[C@H](C)C1CCCCC1 [17/254] | 631 nM | 6.6 | 6.6 |  |  | 
Cc1c(C(=O)NC2CCOCC2)cc(-c2ccc(S(=O)(=O)NC(C)(C)C)c(C(F)(F)F)c2)n1CC1(O)CCCCC1 [17/255] | 7940 nM | < 4.7 | < 4.7 |  |  | 
Cc1c(C(=O)NC2CCOCC2)cc(-c2ccc(S(=O)(=O)NC(C)(C)C)c(C(F)(F)F)c2)n1CC1CCC(F)(F)CC1 [17/256] | 631 nM | 6.8 | 7.0 |  |  | 
Cc1c(C(=O)NC2CCOCC2)cc(-c2ccc(S(=O)(=O)NC(C)(C)C)c(C(F)(F)F)c2)n1CC1CCC(F)CC1 (stereo not drawn) [17/257] |  |  |  | 501 nM | 6.3/7.4/7.6 | 6.3/7.4/7.6
Cc1c(C(=O)NC2CCOCC2)cc(-c2ccc(S(=O)(=O)NC(=O)C(C)(C)C)c(C(F)(F)F)c2)n1CC1CCCCC1 [17/258] | 7940 nM | < 4.7 | < 4.7 |  |  | 
Cc1c(C(=O)NC2CCC(C)(C(=O)O)CC2)cc(-c2ccc(S(=O)(=O)NC(C)(C)C)c(C(F)(F)F)c2)n1CC1CCCCC1 (stereo not drawn) [17/259] | 1000 nM | 7.2 | 7.2 |  |  | 
Cc1c(C(=O)N[C@H]2C[C@H](C(=O)O)C2)cc(-c2cc(C(C)(C)C)nc(C(C)(C)C)c2)n1CC1CCCCC1 [17/262] |  |  |  | 631 nM | 6.2/7.6/7.8 | 6.2/7.6/7.8
Cc1c(C(=O)NCCN2CCOCC2)cc(-c2ccc(S(=O)(=O)NC(C)(C)C)c3ccccc23)n1CC1CCCCC1 [17/269] |  |  |  | 1000 nM | 6.0/6.9/7.0 | 6.0/6.9/7.0
Cc1c(-c2cc(C(=O)NC3CCOCC3)c(C)n2CC2CCCCC2)ccc(S(=O)(=O)NC(C)(C)C)c1C [17/273] | 1580 nM | 7.2 | 7.3 |  |  | 
Cc1c(C(=O)NC2CCOCC2)cc(-c2ccc(S(=O)(=O)NC(C)(C)C)c(Cl)c2Cl)n1CC1CCCCC1 [17/276] |  |  |  | 158 nM | 6.8/7.9/8.0 | 6.8/7.9/8.0
Cc1c(C(=O)NC2CCOCC2)cc(-c2ccc(S(=O)(=O)NC(C)(C)C)c3cccnc23)n1CC1CCCCC1 [17/282] | 2000 nM | 6.6 | 6.7 |  |  | 
Cc1c(C(=O)NC2CCOCC2)cc(-c2ccc(S(=O)(=O)NC(C)(C)C)c3ncccc23)n1CC1CCCCC1 [17/283] | 1000 nM | 6.7 | 6.8 |  |  | 
Cc1c(S(=O)(=O)NC(C)(C)C)ccc(-c2cc(C(=O)NC3CCOCC3)c(C)n2CC2CCCCC2)c1C(F)(F)F [17/287] | 631 nM | 7.7 | 7.7 |  |  | 
